What was measured:
[1] = system: sweet corn; assay: Experiment 8: foliar application of LCO on sweet corn; format: in vivo
Source text: Fertilizer (36-12-18) was applied to the corn field at 500 kg/ha before seeding. A machine planter was employed to sow sweet corn grain. Plot size was 4×4.5=18 M^2, and 6 rows/plot. To protect corn ears from raccoons and other animal damage, sweet corn plants were protected with an electric fence around the plots after silking. LCO was applied once 40 days after sowing or/and twice, 40 days after sowing and 58 days after sowing at a rate of 200 L/ha for the first application and 300 L/ha for the second application. Corn was harvested 80 days after sowing, from the two middle rows and corn ears reaching 12 cm or longer were counted as marketable.

[2] = system: Ridgetown canning tomato; assay: Experiment 10: effect of LCO on Ridgetown canning tomato; format: in vivo; conditions: for Fruit number (on 24 plants) / Fruit number Increase vs. CK (%) / Fruit weight (kg/24 plants) / Fruit weight Increase vs. CK (%): first harvesting
Method: The experiment was conducted at Ridgetown College, University of Guelph, Ridgetown, Ontario. Tomatoes were transplanted in single twin rows, 7 m in length spaced 1.65 m apart. Treatments of LCO were applied three times, two weeks before flowering (28 days after transplant), two weeks after flowering (52 days after transplant) and six weeks after flowering (69 days after transplant). Spray applications were applied using a specialized, small plot research CO2 sprayer with a two-nozzled, hand-held boom applying 200 L/ha of spray. Rates were determined based on 38 tomato plants per plot, replicated 4 times, equaling 152 plants per treatment. Early fruit was harvested for yield evaluation on Aug. 20, 2003.

[3] = system: greenhouse tomatoes; assay: Experiment 11: LCO foliar application in greenhouse tomatoes; format: in vivo, tomato; conditions: 28 days after transplant
Method: Tomatoes were seeded and transplanted into 10″ pots 30 days later in the greenhouse. Plants were sprayed with 5 ml (50 ng) LCO solution per plant 10 days after transplant and 14 days after transplant (50 ng×2). Flowering data was collected 28 days after transplant. The same plants as FIG. 2-1 were sampled for fruit data 28 days after transplant.

[4] = system: Red tomato (cv. Mountain Spring); assay: Experiment 15: LCO application on early fruit number and yield, field tomato; format: in vivo
Method: Red tomato seedlings (cv. Mountain Spring) were transplanted at their 4-leaf stage. 7 plants in one row were transplanted in each plot of 3.5×2.5M2. The row was covered with 65 cm width black plastic mulch, one week before transplanting. Fertilizer (10-52-10) solution of 250 pprn was applied into the planting hole through the mulch when transplanting (approx. 250 ml/plant). the drip irrigation system was set to twice a week and 4 hours each time, depending on the soil moisture. Plants were sprayed with LCO 15 days after transplant (5 ml/plant) and 29 days after transplant (20 ml/plant). Fruits were first harvested 67 days after transplant.

[5] = system: soybean (cv. Nortman); assay: Experiment 18: LCO foliar application on legume (soybean); format: in vivo
Method: A short heat-unit variety of soybean (cv. Nortman, HU 2425) was planted at density of plants on the field of approx. 300 plants per plot (500,000 plants/ha). The soybean plants were first treated with LCO at their blooming stage 24 days after planting. The treatment amounts of LCO (detailed above) were diluted with distilled water to give a 2-litre solution sprayed over 4 plots of the treatment. The second application was sprayed at the podding stage 49 days after planting. As before, the LCO was diluted with distilled water to 2-litre solution per 4 plots of the treatment. The plants receiving a single application were sprayed with LCO for the first time, whereas the plants receiving a double application were sprayed for the second time. A CO2 pressure sprayer was employed for this trial. The amount of fluid dispensed by the sprayer was controlled by the nozzle size. It was calibrated with water prior to spraying with LCO. Biomass was examined 58 days after planting by digging out by hand 5 plants per plot. The final yield was obtained by harvesting by combine the intact area (2-meter long to the end) 101 days after planting. The data were analyzed with the SAS program.

[6] = applied 2 weeks before and after flowering

## Lipo-chitooligosaccharides [LCO]
[1]; 10^−7M once
  Average Length (cm)/ear: 13.12 c cm
  Ear No/plant: 0.934
  Ear Weight (kg)/ha: 4383.3 kg/ha
  Ear/ha: 65416.7 ab /ha
  Marketable ears/ha: 25000.0 /ha
[1]; 10^−7M twice
  Average Length (cm)/ear: 13.81 ab cm
  Ear No/plant: 0.935
  Ear Weight (kg)/ha: 5000.0 kg/ha
  Ear/ha: 70833.3 a /ha
  Marketable ears/ha: 30416.7 /ha
[1]; 10^−8M once
  Average Length (cm)/ear: 13.24 bc cm
  Ear No/plant: 0.905
  Ear Weight (kg)/ha: 4800.0 kg/ha
  Ear/ha: 67083.3 ab /ha
  Marketable ears/ha: 26250.0 /ha
[1]; 10^−8M twice
  Average Length (cm)/ear: 13.64 abc cm
  Ear No/plant: 0.856
  Ear Weight (kg)/ha: 5150.0 kg/ha
  Ear/ha: 62083.3 ab /ha
  Marketable ears/ha: 30000.0 /ha
[1]; 10^−9M once
  Average Length (cm)/ear: 13.68 abc cm
  Ear No/plant: 0.928
  Ear Weight (kg)/ha: 4266.7 kg/ha
  Ear/ha: 68333.3 a /ha
  Marketable ears/ha: 29166.7 /ha
[1]; 10^−9M twice
  Average Length (cm)/ear: 13.43 bc cm
  Ear No/plant: 0.886
  Ear Weight (kg)/ha: 4033.3 kg/ha
  Ear/ha: 56666.7 bc /ha
  Marketable ears/ha: 25000.0 /ha
[1]; foliar application in the range of 10^−8-10^−7M
  total number of sweet corn ears: significantly increased
[2]; [6]
  increased fruit number: up to 20%
  increased fruit weight: up to 16%
[2]; treatment 0-50-0
  Fruit number (on 24 plants): 209AB
  Fruit number Increase vs. CK (%): 14.2%
  Fruit weight (kg/24 plants): 12.598 kg/24 plants
  Fruit weight Increase vs. CK (%): 16.2%
[2]; treatment 0-50-75
  Fruit number (on 24 plants): 191AB
  Fruit number Increase vs. CK (%): 4.4%
  Fruit weight (kg/24 plants): 11.352 kg/24 plants
  Fruit weight Increase vs. CK (%): 4.7%
[2]; treatment 50-0-0
  Fruit number (on 24 plants): 206AB
  Fruit number Increase vs. CK (%): 12.6%
  Fruit weight (kg/24 plants): 11.916 kg/24 plants
  Fruit weight Increase vs. CK (%): 9.9%
[2]; treatment 50-50-0
  Fruit number (on 24 plants): 219A
  Fruit number Increase vs. CK (%): 19.7%
  Fruit weight (kg/24 plants): 12.567 kg/24 plants
  Fruit weight Increase vs. CK (%): 15.9%
[2]; treatment 50-75-0
  Fruit number (on 24 plants): 199AB
  Fruit number Increase vs. CK (%): 8.7%
  Fruit weight (kg/24 plants): 11.421 kg/24 plants
  Fruit weight Increase vs. CK (%): 5.3%
[3]; 50 ng/plant single or double
  tomato early flowering: improved tomato early flowering
[3]; single 50 ng LCO application
  increased fruit set: approx. 1 fruit/plant
[4]; early fruit number and weight
  optimal application: 75 ng/plant
[4]; foliar spray 15 and 29 days after transplant
  early fruit number and weight: significantly increased
[5]; LCO 1 ng, applied once
  Biomass (g/5-plant): 49.46 AB g/5-plant
  Yield (kg/ha): 2563.96 AB kg/ha
[5]; LCO 1 ng, applied twice
  Biomass (g/5-plant): 55.10 AB g/5-plant
  Yield (kg/ha): 2673.54 AB kg/ha
[5]; LCO 10 ng, applied once
  Biomass (g/5-plant): 46.28 AB g/5-plant
  Yield (kg/ha): 2515.33 B kg/ha
[5]; LCO 10 ng, applied twice
  Biomass (g/5-plant): 60.11 A g/5-plant
  Yield (kg/ha): 2385.75 B kg/ha
[5]; LCO 100 ng, applied once
  Biomass (g/5-plant): 46.87 AB g/5-plant
  Yield (kg/ha): 2635.00 AB kg/ha
[5]; LCO 100 ng, applied twice
  Biomass (g/5-plant): 55.09 AB g/5-plant
  Yield (kg/ha): 2974.17 A kg/ha
[5]; LCO 1000 ng, applied once
  Biomass (g/5-plant): 47.99 AB g/5-plant
  Yield (kg/ha): 2452.71 B kg/ha
[5]; LCO 1000 ng, applied twice
  Biomass (g/5-plant): 47.81 AB g/5-plant
  Yield (kg/ha): 2620.42 AB kg/ha

Source: US20130244879A1, “USE OF LIPO-CHITOOLIGOSACCHARIDES TO INITIATE EARLY FLOWERING AND FRUIT DEVELOPMENT IN PLANTS AND RELATED METHODS AND COMPOSITIONS” (NOVOZYMES BIOLOGICALS HOLDING A/S, priority 2003, published 2013)
